Data published in US9943592B2, “Vaccine adjuvants from self-assembling peptides” (priority 2011, dated 2018).
Square brackets hold non-standard residues; d marks the D form. Ends that are not written are not given here.

Experiments:
[1] = solubility, stability and morphology of peptide and hydrogel; assay type: physicochemical; conditions: for solubility of peptide in water: until pH adjusted to neutral or basic
PRRSV [2] = assay: dynamic viremia after challenge in pigs; assay type: in vivo; conditions: challenge with VR2332 or MN184a on day 28
Experimental: (§1) A stock solution of h9e peptide (concentration 1.75% by weight in water) was prepared. For the active agent, 2X Ingelvac PRRS MLV (Boehringer Ingelheim Vetmedica, St. Joseph, Mo.) was used. The vaccine was rehydrated by adding half of the contents of the accompanying liquid diluent to the vial containing the virus. Medium was then prepared by adding 0.3 ml bovine serum to 7.2 ml MEM medium (ion source). Next, 5 ml of the peptide stock solution was added to the medium and mixed well. This was then mixed with the vaccine solution. The final concentration of h9e as adjuvant was 0.35% by weight, and the final concentration of serum was […] by weight.
(§2) Vaccines were also prepared using a commercially-available adjuvant, Montanide™ Gel 01 (aqueous polymeric gel veterinary adjuvant, Seppic Inc., Fairfield, N.J.), or a published peptide hydrogel, designated herein as A1/2 (SEQ ID NO:28, corresponding to the N-terminal region of mineral directing gelator (MDG) 1; Gungormus, et al., Biomaterials 31 (2010) 7266-7274).
(§3) 55 PRRSV serum negative pigs were initially divided into 5 vaccination groups and vaccinated on Day 0. […]
(§4) At Day 0, all pigs were weighed, and weight was monitored weekly and recorded on Days 7, 14, 21, and 28. […] Body temperature and clinical signs were monitored daily and recorded. […]

PRRSV [3] = assay: dynamic viremia after vaccination in pigs; conditions: pig, in vivo
Experimental: as §1, §2, §3, §4

PRRSV [4] = assay: IDEXX ELISA Ab titer in pigs; assay type: in vivo
Experimental: as §1, §2, §3, §4

[5] = hydrogel formation of peptide solutions (ion or pH trigger); assay type: physicochemical; conditions: 0.005M peptide concentration
Experimental: (§5) The synthesized peptide was dissolved in DI water to a concentration of 5 mM by adjusting the pH to 8.0-10.0 with 1 M NaOH (Sigma). The h5e acidic solution and acidic h9e hydrogel were made by adjusting the pH to 4.0 with 1 M HCl (Sigma). The h9e Ca^2+ hydrogel was prepared by adding CaCl2 to a basic h9e peptide solution (molar ratio of peptide and Ca^2+ was 1:10, final pH was 7.0 to 9.0). The same method was used to prepare the h5e Ca^2+ solution.

[6] = rheology of peptide hydrogels (storage modulus G', amplitude sweep, temperature profile); assay type: physicochemical
Experimental: as §5
The storage, G′, and loss, G″, moduli of h9e acidic and Ca^2+ hydrogels were determined on a rheometer system C-VOR 150 (Malvern instruments, Malvern, Worcestershire WR141XZ, United Kingdom) with a 20-mm diameter parallel plate geometry through frequency sweep (strain 1%, frequency 0.01 to 10 Hz, temperature 25° C.), amplitude sweep (strain 1 to 500%, frequency 1 Hz, temperature 25° C.), and temperature profile (strain 1%, frequency 1 Hz, Temperature 5° C., 20° C., 37° C., 50° C., 75° C., and 90° C.) measurements. The multiple amplitude sweep experiments were conducted to test the moduli recovery of peptide hydrogels. The time gap between every two tests was 10, 30, and 60 seconds for h9e Ca^2+ hydrogel.

## FLIVIGPGGDGPGGD [h5e, FLIVIGPGGDGPGGD]
[1]
  solubility of peptide in water: insoluble in water

## A1/2: published peptide hydrogel, N-terminal region of mineral directing gelator (MDG) 1 (VKVKVKVKVPPTKVEVKVKV; Derivative of N-terminal region of mineral directing gelator (MDG) 1)
PRRSV [2]
  viremia after challenge: not
PRRSV [3]
  viremia after vaccination compared to the MLV group: no difference
PRRSV [4]
  ELISA Ab titer after vaccination, compared among groups: lowest

## L5GSIIK10: L5K10 diblock peptide with GSII inserted (LLLLLGSIIKKKKKKKKKK)
[5]
  hydrogel formation in Ca^2+ solution: no hydrogel formation was observed

## LLLLLKKKKKKKKKK (Synthetic diblock peptide) [L5K10]
[5]
  hydrogel formation in Ca^2+ solution: no hydrogel formation was observed

## L5PP^DK10: L5K10 diblock peptide with sharp turning segment PP^D inserted (LLLLLP[dP]KKKKKKKKKK)
[5]
  hydrogel formation in Ca^2+ solution: no hydrogel formation was observed

## FLIVIGSIIGPGGDGPGGD [h9e, FLIVIGSIIGPGGDGPGGD]
Immunized mice until sera collection
  general health / biological safety: biologically safe
Vaccinated mice
  injection site reaction (redness or swelling): No injection site reaction
[1]
  temperature stability of hydrogel: up to 90 °C
  water solubility of hydrogel: water soluble
  solubility of peptide in water: insoluble in water

## GPGGDGPGGD (Hydrophilic region derived from spider flagelliform silk protein) [eD2]
[5]
  hydrogel formation in Ca^2+ solution: not able to form hydrogels

## FLIVIGSIIKKKKKKKKKK (Synthetic peptide adjuvant) [h9e variant with eD2 region replaced by K10]
[6]
  G' of hydrogel in basic pH: 55.0 ± 0.9 Pa
